According to US9926354B2, “Amyloid precursor protein (APP) based Ã#-secretase inhibitor peptides, and methods of use” (UNIVERSITY OF SOUTH FLORIDA, priority 2014, dated 2018):

Key:
[1] = tested on: CHO cells over-expressing human Swedish mutant APP (CHO/APPswe); assay: Aβ and sAPPα production in cultured media of CHO/APPswe cells by ELISA; type: cell-based, Chinese hamster; conditions: 20 μg/mL, 24 hours
Experimental: (§1) Cell Culture—Chinese hamster ovary (CHO) cells engineered to express wild-type human APP (CHO/APPwt cells) or Swedish mutant human APP (CHO/APPswe cells) were kindly provided by Dr. Stefanie Hahn and Dr. Sascha Weggen (University of Heinrich Heine, Dusseldorf, Germany). As described previously (Obregon et al., 2012), these cells were cultured in Dulbecco's modified Eagle's medium (DMEM) with 10% fetal bovine serum (FBS), 1 mM sodium pyruvate, and 100 units/mL of penicillin and streptomycin.
(§2) To confirm the binding of APPsweBBP with BACE1, CHO/APPwt cells were plated in 8-well chambers (5×10^5/well), incubated with TAT-APPsweBBP-biotin or APPsweBBP-biotin at 20 μM for 30 minutes, fixed with 4% paraformaldehyde for 20 minutes, washed and permeabilized with 0.5% Triton X-100. Following application of blocking buffer, these cells were stained with mouse anti-BACE1 and rabbit anti-biotin antibodies overnight at 4° C. for immunocytochemistry analysis. In order to determine the inhibitory effects of TAT-APPsweBBP on BACE1-mediated APP β-cleavage and subsequent Aβ production, both CHO/APPwt and CHO/APPswe cells were plated in 24 well-plates (3×10^5/well) and treated with TAT-APPsweBBP at 0-20 μM for 24 hours. The cultured media were collected for Aβ analysis by enzyme-linked immunosorbent assay (ELISA) and sAPPα analysis by ELISA and Western blot (WB). Cell lysates were also prepared for analysis of APP amyloidogenic processing by WB.
(§3) ELISA—Mouse brains were homogenized in ice-cold lysis buffer for 30 seconds using a Minilys tissue homogenizer (Bertin Technologies, Montigny-le-Bretonneux, France) set at high speed, allowed to stand for 15 minutes at 4° C., and centrifuged at 15,000 rpm for 30 minutes. Soluble Aβ1-40/42 species and sAPPα were directly detected in cultured cell media or brain homogenates using the Aβ1-40/42 (Invitrogen) and sAPPα ELISA kits (IBL-America, Minneapolis, Minn., USA).
(§4) To further examine the ability of the Swedish mutant APP BACE1 binding peptide/Tat fusion peptides to decrease Aβ production, CHO cells overexpressing either human wild-type APP (CHO/APPwt cells) or Swedish mutant APP (hereinafter referred to as “CHO/APPswe cells”) are treated with a variety of APP-based BACE1 inhibitor peptides, as shown in Table 1 and Table 2. Aβ production is determined using ELISA.

[2] = tested on: CHO cells over-expressing human wild-type APP (CHO/APPwt); assay: Aβ and sAPPα production in cultured media of CHO/APPwt cells by ELISA (24 hours); type: cell-based, Chinese hamster; conditions: 20 μg/mL
Experimental: as §1
as §2, with “In order to determine the inhibitory effects of TAT-APPsweBBP on BACE1-mediated APP β-cleavage and subsequent Aβ production, both CHO/APPwt and CHO/APPswe cells were plated in 24 well-plates (3×10^5/well) and treated with TAT-APPsweBBP at 0-20 μM for 24 hours.” left out
as §3, §4

[3] = tested on: CHO/APPwt cells; assay: Aβ production in CHO/APPwt cells by ELISA (Example 1, 4 hours); type: cell-based, Chinese hamster; conditions: 20 μg/mL
Experimental: To examine the effects of various Swedish Tat fusion peptides on Aβ production, human wild-type amyloid precursor protein (APP) is overexpressed in Chinese hamster ovary cells (hereinafter referred to as CHO/APPwt cells), and the cells are treated with either PBS control (Phosphate buffered saline); Swedish peptide-1 (SwePep-1), […] (also referred herein as “APPsweBBP1”) (SEQ ID NO: 5); Swedish peptide-2 (SwePep-2) (also referred herein as “APPsweBBP”), […] (SEQ ID NO: 1); Swedish Tat fusion peptide-1 (SweTatPep-1), […] (also referred herein as “APPsweBBP/TTD1”) (SEQ ID NO: 6); or Swedish Tat fusion peptide-2 (SweTatPep-2) (also referred herein as “APPsweBBP/TTD2” and “TAT-APPsweBBP”), […] (SEQ ID NO: 3). APPsweBBP is a truncated fragment of APPswe spanning 12 amino acid residues (Glu665-Arg676). TAT, an 11-amino acid-residue protein-transduction domain derived from the HIV-1 transactivator of transcription protein, was conjugated at the C-terminus of APPsweBBP and biotin was conjugated at the N-terminus.
Following treatment, Aβ production is determined utilizing ELISA and the results illustrated in FIG. 1A. SweTatPep-2, SwePep-2, SwePep-1 and SweTatPep-1 each reduce Aβ40,42 by 63-65%, 30-33%, 31-34% and 37-38%, respectively.

[4] = target: BACE1 (Homo sapiens, UniProt P56817); assay: BACE1 activity assay (FRET, cell-free); type: biochemical; design: purchased Pan Vera Co., Madison, Wis., USA; conditions: peptide final concentration 20 μM, 90 minutes, room temperature
Chain of BACE1 (P56817 46-501): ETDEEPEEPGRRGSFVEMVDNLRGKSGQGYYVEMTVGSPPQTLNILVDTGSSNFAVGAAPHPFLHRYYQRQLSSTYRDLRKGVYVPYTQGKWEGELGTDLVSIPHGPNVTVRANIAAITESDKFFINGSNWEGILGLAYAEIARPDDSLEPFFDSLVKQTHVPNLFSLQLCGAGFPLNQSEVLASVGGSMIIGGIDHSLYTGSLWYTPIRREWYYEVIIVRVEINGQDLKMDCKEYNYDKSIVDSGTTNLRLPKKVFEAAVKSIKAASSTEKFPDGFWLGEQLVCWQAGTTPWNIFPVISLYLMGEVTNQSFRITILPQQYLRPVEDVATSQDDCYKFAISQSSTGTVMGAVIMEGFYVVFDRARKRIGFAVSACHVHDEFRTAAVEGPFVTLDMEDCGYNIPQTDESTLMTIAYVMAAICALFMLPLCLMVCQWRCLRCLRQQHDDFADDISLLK
Experimental: BACE1 Activity Assay—The BACE1 inhibiting activity of APP-based BACE1 site binding peptides were determined using a fluorescence resonance energy transfer (FRET) assay (Pan Vera Co., Madison, Wis., USA), which employs a recombinant baculovirus-expressed BACE1 and a specific substrate (Rh-[…]-quencher) that is based on the APPswe mutation. This specific peptide substrate becomes highly fluorescent upon enzymatic cleavage. A mixture of 10 μL of BACE1 (1.0 U/mL in 50 mM Tris, pH7.5, 10% glycerol), 10 μL of FRET-substrate, and 10 μL of the various APP-based BACE1 site binding peptides (final concentration 20 μM) were incubated for 90 minutes in the dark at room temperature. Then, 10 μL of BACE1 stop buffer (2.5 M sodium acetate) was added to the mixture. Fluorescence was read using a fluorometer, with excitation at 545 nm and emission at 585 nm.
As a required enzyme for the generation of neurotoxic Aβ from APP, BACE1 is well established as an important mediator of AD β-amyloid pathology. As such, it has become an important target for new disease modifying therapeutics. However, since BACE1 also has important physiological roles, abolishment of the enzyme or its activity may lead to deleterious side effects as evidenced by numerous failed clinical trials discussed previously. […] Since previous studies have established a close relationship between α-helix structure and peptide-protein (or protein-protein) interactions (Azzarito, 2013; Rao et al., 2013), several APP based peptides were synthesized that might serve as a preferable substrate for BACE1. Importantly, these peptides were free of the Aβ-containing segment and, thus, cannot be amyloidogenic. In theory, these could be used to “hijack” the BACE1 processing of endogenous APP and lead to a decrease in cerebral Aβ. These BACE1 substrates and controls were incubated with recombinant BACE1 and percent of inhibition of the enzyme was calculated. […] These findings indicate that the α-helical TAT fusion domain may help to promote selective APPsweBBP proteolysis by BACE1, yielding substrate competition against human wild-type APP.

Sequence	Secreted Aβ40 (ng/mg; mean ± SD) [1] [ng/mg]	Secreted Aβ42 (ng/mg; mean ± SD) [1] [ng/mg]	Secreted sAPPα (ng/mg; mean ± SD) [1] [ng/mg]	Secreted Aβ40 (ng/mg; mean ± SD) [2] [ng/mg]	Secreted Aβ42 (ng/mg; mean ± SD) [2] [ng/mg]	Secreted sAPPα (ng/mg; mean ± SD) [2] [ng/mg]	reduction of Aβ40,42 [3]	% of inhibition (mean ± SD) of BACE1 [4] [%]
IKTEEISEVKMDAEFR (listed as Homo sapiens) [APPwtBBP1]	62.43 ± 9.43	8.91 ± 0.83	217.35 ± 17.32	11.23 ± 0.89	1.23 ± 0.043	4874.42 ± 174.56		
IKTEEISEVNLDAEFR (listed as Homo sapiens) [APPsweBBP1]	57.23 ± 11.65	9.01 ± 1.07	211.43 ± 18.31	9.67 ± 0.84	1.07 ± 0.054	4711.83 ± 201.45	31-34%	
EISEVKMDAEFR (listed as Homo sapiens) [APPwtBBP]	59.84 ± 11.23	9.78 ± 1.07	201.65 ± 11.54	10.89 ± 0.76	1.18 ± 0.051	4762.21 ± 164.89		16.23
EVKMDAEFR (listed as Homo sapiens) [APPwtBBP3]	61.36 ± 8.34	10.93 ± 1.98	199.83 ± 14.65	11.43 ± 1.01	1.09 ± 0.061	4699.78 ± 178.43		4.89 ± 0.06
YGRKKRRQRRREISEVKMDAEFR (human-virus fusion) [APPwtBBP/TTD2]	40.32 ± 8.43	6.78 ± 0.92	267.92 ± 15.88	6.53 ± 0.81	0.68 ± 0.034	5291.14 ± 142.75		21.01 ± 1.42
YGRKKRRQRRREVKMDAEFR (human-virus fusion) [APPwtBBP/TTD3]	57.45 ± 13.11	9.56 ± 1.11	201.23 ± 21.23	10.12 ± 1.11		4699.15 ± 155.92		
YGRKKRRQRRRIKTEEISEVNLDAEFR (human-virus fusion) [APPsweBBP/TTD1]		7.98 ± 0.81	236.32 ± 13.09	8.93 ± 0.82	0.95 ± 0.037	4901.54 ± 211.54	37-38%	
EVNLDAEFR (listed as Homo sapiens) [APPsweBBP3]		7.12 ± 0.84	231.26 ± 14.28	10.23 ± 0.73	0.92 ± 0.041	4709.43 ± 123.74		14.32 ± 0.04
YGRKKRRQRRRIKTEEISEVKMDAEFR (human-virus fusion) [APPwtBBP/TTD1]	64.21 ± 12.12	7.82 ± 0.67	229.45 ± 12.73	9.32 ± 0.68	1.01 ± 0.052	4688.12 ± 109.65		
YGRKKRRQRRREVNLDAEFR (human-virus fusion) [APPsweBBP/TTD3]	41.87 ± 5.76	8.43 ± 0.95	211.37 ± 18.93	8.74 ± 0.55	0.93 ± 0.048	5001.45 ± 271.34		
